The values below come from article PMC12095047, “Transport of phenoxyacetic acid herbicides by PIN-FORMED auxin transporters” (Nature Plants, 2025).

Several values for one entry are separate records, joined by “and”; a condition that tells them apart may be missing. Equal entries are not always repeated.

As usually defined, the Kd is the constant that tells how readily two partners part at equilibrium.

Test [1] has as its system A. thaliana stem segments of pin1 mutants. The test is described as follows: Arabidopsis stem transport assay, pin1 mutant. Type of test: in vivo, Arabidopsis thaliana. The procedure:
(§1) Arabidopsis stem transport assays were carried out as described. Briefly, 2 cm stem sections were cut above the rosette of 5-week-old plants and placed in inverted orientation into auxin transport buffer containing 500 pM IAA, 1% (wt/vol) sucrose, 5 mM 2-(N-morpholino)ethanesulfonic acid, pH 5.5 with or without 100 μM NPA. After 2 h the stems were transferred into auxin transport buffer containing 417 nM [^3H]-IAA or [^3H]-2,4-D as a substrate in the absence and presence of NPA. After 2 h, 5 mm segments were dissected, and the substrate was quantified using a liquid scintillation counter.

The target in the next test is T1, A. thaliana PIN3 (Arabidopsis thaliana, UniProt Q9S7Z8).
T1 construct: expressed in transfected cells; host or cells: Xenopus oocytes (cRNA injection)
T1 sequence (Q9S7Z8 1-640): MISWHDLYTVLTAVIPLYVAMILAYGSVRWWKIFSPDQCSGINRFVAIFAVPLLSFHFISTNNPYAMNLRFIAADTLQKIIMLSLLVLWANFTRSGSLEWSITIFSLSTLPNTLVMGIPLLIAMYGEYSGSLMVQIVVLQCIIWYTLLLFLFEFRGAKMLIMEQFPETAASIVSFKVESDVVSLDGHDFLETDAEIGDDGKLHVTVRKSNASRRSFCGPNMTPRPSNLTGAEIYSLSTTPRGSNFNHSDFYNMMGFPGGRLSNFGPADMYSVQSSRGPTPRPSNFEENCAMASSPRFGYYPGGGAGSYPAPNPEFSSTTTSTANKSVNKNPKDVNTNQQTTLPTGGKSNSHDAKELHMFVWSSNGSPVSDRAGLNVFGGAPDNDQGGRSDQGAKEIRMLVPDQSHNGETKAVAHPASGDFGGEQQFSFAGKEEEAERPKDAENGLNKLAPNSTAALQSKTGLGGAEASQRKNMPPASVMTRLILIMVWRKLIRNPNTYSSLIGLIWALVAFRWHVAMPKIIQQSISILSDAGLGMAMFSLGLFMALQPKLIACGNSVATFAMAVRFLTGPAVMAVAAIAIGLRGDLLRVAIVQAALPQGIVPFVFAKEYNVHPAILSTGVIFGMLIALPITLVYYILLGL
Description: Xenopus oocyte efflux assay, PIN3 with or without PID kinase. Particulars: for Rel. 2,4-D transport rate (% exported/min): replicates; for Rel. 2,4-D transport rate: PIN3 oocytes, individual experiments. Type of test: cell-based. As to the method:
(§2) Oocyte efflux experiments were carried out as described[12],[20],[26]. Briefly, oocytes were injected with 150 ng transporter complementary RNA without or with 75 ng kinase cRNA. [^3H]-IAA (25 Ci mmol^−1) and [^3H]-4-CPA (37.7 Ci mmol^−1) was purchased from RC Tritec. [^3H]-2,4-D (25 Ci mmol^−1) was purchased from ARC. Oocytes were injected with substrate to reach an internal concentration of 1 µM, corresponding to 100%. Residual radioactivity was determined for each individual oocyte by liquid scintillation counting after the time points indicated and are expressed relative to the initial 100%. Each time point represents the mean and s.e. of ten oocytes. To calculate the relative transport rate in percentage per minute, linear regression was performed. Each data point in Fig. 1b,c and Extended Data Fig. 2b,e represents the transport rate of one biological replicate using oocytes collected from different Xenopus females.

The test system of test [2] is A. thaliana stem segments of wild type. Description: Arabidopsis stem transport assay, Col-0 wild type.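 For CPM: Segments numbered apical to basal with Segment 1 nearest the apical end.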 Particulars: for CPM: WT. Type of test: in vivo, Arabidopsis thaliana. The procedure:
as §1

Test [3] deals with T2, PIN8 (Arabidopsis thaliana, UniProt Q9LFP6).
T2 construct: made in house
T2 sequence (Q9LFP6 1-367): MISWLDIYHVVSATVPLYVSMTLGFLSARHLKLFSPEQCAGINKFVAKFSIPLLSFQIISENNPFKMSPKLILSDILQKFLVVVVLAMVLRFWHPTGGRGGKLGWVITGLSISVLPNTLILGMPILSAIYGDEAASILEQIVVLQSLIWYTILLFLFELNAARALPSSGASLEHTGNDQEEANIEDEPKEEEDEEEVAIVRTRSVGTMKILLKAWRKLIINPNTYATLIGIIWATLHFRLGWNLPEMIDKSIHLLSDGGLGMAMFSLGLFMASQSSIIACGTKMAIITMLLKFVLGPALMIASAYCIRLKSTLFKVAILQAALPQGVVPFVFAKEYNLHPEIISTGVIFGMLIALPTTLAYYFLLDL
The test is described as follows: Xenopus oocyte efflux assay, PIN8. Type of test: cell-based. The following applies: for Rel. 2,4-D transport rate: [3H]-2,4-D export by PIN8 from oocytes; for Rel. 2,4-D transport rate / Rel. IAA transport rate: individual experiments; for Rel. IAA transport rate: [3H]-IAA export by PIN8 from oocytes. As to the method:
as §2

For test [4], the target named is T2, PIN8. Also on record: method as in PMID 35768502. Particulars: read-out: IAA binding affinity KD, previously described; cited from earlier work.

Regarding `O=C(O)COc1ccc(Cl)cc1Cl` [2,4-D, 2,4-dichlorophenoxyacetic acid], the “transport in stem segments” value in test [1] (pin1 mutants) is given as “completely abolished”. Moreover, the CPM in test [1] (sheet EDF2I, pin1, + NPA, Segment 1, single stems) was 52 CPM and 51 CPM and 42 CPM and 38 CPM; in test [1] (sheet EDF2I, pin1, + NPA, Segment 2, single stems), 52 CPM and 31 CPM and 27 CPM and 33 CPM; in test [1] (sheet EDF2I, pin1, - NPA, Segment 2, single stems), 18 CPM and 32 CPM and 22 CPM and 34 CPM and 25 CPM; in test [2] (sheet EDF2I, + NPA, Segment 2, single stems), 33 CPM and 25 CPM and 26 CPM and 39 CPM; in test [2] (sheet EDF2I, + NPA, Segment 3, single stems), 20 CPM and 21 CPM and 33 CPM and 30 CPM; in test [2] (sheet EDF2I, - NPA, Segment 1, single stems), 76 CPM and 115 CPM and 77 CPM and 107 CPM. For the same compound, the CPM in test [2] (sheet EDF2I, - NPA, Segment 2, single stems) was 35 CPM and 37 CPM and 34 CPM and 29 CPM and 30 CPM; in test [2] (sheet EDF2I, - NPA, Segment 3, single stems) it was 29 CPM and 37 CPM and 35 CPM and 26 CPM and 28 CPM. For the same compound, the “Rel. 2,4-D transport rate (% exported/min)” value is 2.469 % exported/min and 1.491 % exported/min and 1.857 % exported/min on A. thaliana PIN3 (PID +); 1.104 % exported/min and -0.5881 % exported/min and -1.06 % exported/min on A. thaliana PIN3 (PID -). Moreover, the “export rate relative to the IAA transport rate” value at A. thaliana PIN3 (PIN3 activated by PID kinase, NPA-sensitive) was “about half of the IAA transport rate”. For the same compound, the “Rel. 2,4-D transport rate” value is 0.306 % exported/min and 0.1671 % exported/min and -0.318 % exported/min at A. thaliana PIN3 (PID +, NPA + (10 μM)); 2.085 % exported/min and 2.202 % exported/min and 1.56 % exported/min on A. thaliana PIN3 (PID +, NPA -); 0.4736 % exported/min and -0.2953 % exported/min and -0.2713 % exported/min at A. thaliana PIN3 (PID -, NPA + (10 μM)); -0.1695 % exported/min and 0.4151 % exported/min and -0.6296 % exported/min at A. thaliana PIN3 (PID -, NPA -); 0.7325 % exported/min and 0.3331 % exported/min and 0.3715 % exported/min and 0.009798 % exported/min on PIN8 [3] (NPA + (10 μM)); 1.122 % exported/min and 0.7012 % exported/min and 0.7258 % exported/min and 0.8004 % exported/min on PIN8 [3] (NPA -). Besides, in test [2] (wild-type plants), the “transport in stem segments, lower than IAA transport” value was “about 20 fold”. Further, the “transport rate of export from oocytes relative to IAA” value at PIN8 [3] (PIN8, NPA-sensitive export) was “about half of that determined for IAA”.

For `O=C(O)Cc1c[nH]c2ccccc12` [IAA, indole-3-acetic acid], the CPM was 103 CPM and 109 CPM and 91 CPM and 134 CPM and 78 CPM in test [1] (sheet EDF2H, pin1, + NPA, Segment 2, single stems); 70 CPM and 80 CPM and 98 CPM and 135 CPM and 76 CPM in test [1] (sheet EDF2H, pin1, + NPA, Segment 3, single stems); 119 CPM and 97 CPM and 69 CPM and 107 CPM and 82 CPM in test [1] (sheet EDF2H, pin1, - NPA, Segment 3, single stems); 342 CPM and 190 CPM and 344 CPM and 366 CPM and 333 CPM in test [2] (sheet EDF2H, + NPA, Segment 1, single stems); 98 CPM and 93 CPM and 124 CPM and 114 CPM in test [2] (sheet EDF2H, + NPA, Segment 2, single stems); 125 CPM and 94 CPM and 137 CPM and 146 CPM and 104 CPM in test [2] (sheet EDF2H, + NPA, Segment 3, single stems). Besides, in test [2] (sheet EDF2H, - NPA, Segment 3, single stems), the CPM is 181 CPM and 109 CPM and 111 CPM and 125 CPM and 156 CPM. Further, the “Rel. IAA transport rate (% exported/min)” value on A. thaliana PIN3 (PID +, NPA -, single experiments) was 5.59 % exported/min and 5.28 % exported/min and 4.145 % exported/min. The “Rel. IAA transport rate” value is 0.4862 % exported/min and 0.4056 % exported/min and 0.4406 % exported/min on PIN8 [3] (NPA + (10 μM)); 2.069 % exported/min and 2.225 % exported/min and 1.917 % exported/min at PIN8 [3] (NPA -). Besides, the Kd at PIN8 [4] is 40 ± 15 µM.
